Earlier results, collected in patent US7780647B2, “Medical device with therapeutic agents” (Cook Incorporated, priority 2003, dated 2010).

Tests used:
[1] = test system: smooth muscle cell proliferation; settings: both in vitro and in vivo
[2] = test system: restenosis of human coronary arteries; settings: following stent use

**Q.** With `CC(=O)O[C@H]1C(=O)[C@@]2(C)[C@H]([C@H](OC(=O)c3ccccc3)[C@]3(O)C[C@H](OC(=O)[C@H](O)[C@@H](NC(=O)c4ccccc4)c4ccccc4)C(C)=C1C3(C)C)[C@]1(OC(C)=O)CO[C@@H]1C[C@@H]2O` [paclitaxel] as the molecule, how does the “smooth muscle cell proliferation” value [1] read?
**A.** inhibits smooth muscle cell proliferation

**Q.** What about the “restenosis of human coronary arteries” value [2] of the same molecule?
**A.** decrease restenosis
